According to article PMC5904360, “Soluble N-Ethylmaleimide-Sensitive Factor Attachment Protein Receptor-Derived Peptides for Regulation of Mast Cell Degranulation” (Frontiers in Immunology, 2018):
Each block holds one sequence with its values, some of them ahead of it.

What was measured:
RBL-2H3 mast cells [1] = assay: Degranulation assay, β-hexosaminidase release; format: cell-based, rat; settings: for inhibition of mast cell degranulation with versus without A23187 pretreatment: PTD-conjugated peptides, read-outs β-hexosaminidase and histamine (Figure 4B); for reduction of β-hexosaminidase release: 10 µM PTD-fused peptide without SLO (LY294002 as positive control), DNP-BSA stimulation, no A23187 pretreatment, three independent experiments (Figure 2A gray bars, 2C)
[2] = target: T1, SN23-Syn4-Vp8 SNARE complex (Rattus norvegicus, UniProt O70377+Q08850+Q9WUF4); assay: SNARE-driven membrane fusion (total lipid mixing) assay with proteoliposomes; format: biochemical; settings: for inhibition of membrane fusion, peptide added before preincubation: peptide added before preincubation of T- and V-liposomes at 4°C overnight (Figure 4A)
T1 construct: Syn4 (amino acids 1–298); SNAP-23 (amino acids 1–210); VAMP8 (amino acids 1–100); GST (N, cleaved yes); made in house; host or cells: Escherichia coli Rosetta(DE3)pLysS
T1 sequence (Q08850 1-298): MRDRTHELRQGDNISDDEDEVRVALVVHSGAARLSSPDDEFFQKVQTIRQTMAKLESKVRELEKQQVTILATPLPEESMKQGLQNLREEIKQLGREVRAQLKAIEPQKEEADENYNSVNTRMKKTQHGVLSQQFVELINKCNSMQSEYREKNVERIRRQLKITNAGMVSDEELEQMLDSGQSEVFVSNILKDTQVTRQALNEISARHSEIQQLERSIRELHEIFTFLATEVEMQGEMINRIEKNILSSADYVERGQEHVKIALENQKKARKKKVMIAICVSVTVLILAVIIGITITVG
T1 sequence (O70377 1-210): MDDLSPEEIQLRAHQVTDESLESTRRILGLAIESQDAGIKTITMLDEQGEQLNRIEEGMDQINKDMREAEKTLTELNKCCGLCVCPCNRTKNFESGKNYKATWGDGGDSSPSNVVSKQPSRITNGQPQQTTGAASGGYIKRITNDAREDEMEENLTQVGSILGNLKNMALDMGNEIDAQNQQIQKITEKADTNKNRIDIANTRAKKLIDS
T1 sequence (Q9WUF4 1-100): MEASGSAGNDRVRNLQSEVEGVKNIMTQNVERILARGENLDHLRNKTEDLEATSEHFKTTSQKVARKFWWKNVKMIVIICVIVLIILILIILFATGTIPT
Text: (§1) Total RNA was obtained from RBL-2H3 cells using TRIzol® Reagent (#15596026, Invitrogen, Carlsbad, CA, USA) and served as a template for cDNA synthesis with M-MLV reverse transcriptase (M1705, Promega, Madison, WI, USA) according to the manufacturer’s protocol. The cDNAs amplified for rat Syn4, SNAP-23, VAMP2, VAMP4, VAMP7, and VAMP8 using each primer pair ([4]), were cloned into the pGEX-4T 1 vector. The mast cell SNARE proteins [Syn4 (amino acids 1–298), SNAP-23 (amino acids 1–210), full-length VAMP2 (VpF, amino acids 1–116), VAMP4 (amino acids 1–141), and VAMP8 (amino acids 1–100)] were expressed in Escherichia coli Rosetta(DE3)pLysS (#70956, Novagen, Darmstadt, Germany) and purified as glutathione-S-transferase-tagged fusion proteins as reported previously ([8]).
(§2) To prepare the unilamellar liposomes, a 50-mM lipid mixture of palmitoyl-2-oleoylphosphatidylcholine (POPC) (#850457, Avanti Polar Lipids, Alabaster, AL, USA):1,2-dioleoyl-phosphatidylserine (DOPS) (#840035, Avanti Polar Lipids) at 65:35 mol% was dried in a glass tube under a gentle stream of nitrogen gas and then exposed to a vacuum overnight. The resultant lipid film was resuspended in dialysis buffer (25 mM HEPES and 100 mM KCl, pH 7.4) by vortexing, followed by an extrusion step with polycarbonate membrane filters having a pore size of 100 nm (#610005, Avanti Polar Lipids). To prepare proteoliposomes, binary T-SNAREs, which were pre-formed by mixing Syn4 and SNAP-23 at room temperature for 60 min, were incubated with 50 mM unilamellar liposomes for 15 min at the same temperature, resulting in a 50:1 lipid/protein molar ratio ([9]).
(§3) For the preparation of V-SNARE proteoliposomes, a 10-mM premixed lipid solution [POPC:DOPS:N-(7-nitro-2-1,3-benzoxadiazol-4-yl (NBD))-phosphatidylserine (#810198, Avanti Polar Lipids):[…] (#810150, Avanti Polar Lipids) = 62:35:1.5:1.5 (molar ratio)] was used for the preparation of fluorescent liposomes in the same manner as above. The prepared liposomes were then mixed with VAMP2 for 15 min at room temperature. The liposome/protein mixture was diluted twice to bring the concentration of n-octyl glucoside (O8001, Sigma-Aldrich) below the critical micelle concentration. After overnight dialysis against 1L dialysis buffer at 4°C to remove the detergent, SM-2 bio-beads (#1523920, Bio-Rad Laboratories, Hercules, CA, USA) were added to the sample to remove any remaining n-octyl glucoside. The solution was then centrifuged at 10,000 × g to remove the protein/lipid aggregates, and the final lipid concentrations of both the T- and V-liposomes were adjusted to 1 mM with a lipid-to-protein ratio of 50:1.
A total lipid mixing assay using the T- and V-liposomes was performed as described previously with minor modifications ([8]). Briefly, peptide inhibitors were applied to the T-vesicles at the indicated concentrations and then the T-vesicles were mixed with the V-vesicles in a 384-well plate for the initiation of fusion, with a T- to V-vesicle volume ratio of 9:1. The fusion was monitored using the dequenching of NBD fluorescence signal (excitation 465 nm/emission 530 nm). After at least 80 min of fusion, the maximum NBD signal was obtained by adding 0.1% Triton X-100™. All the lipid-mixing experiments were performed at 37°C.

[3] = target: T1, SN23-Syn4-Vp8 SNARE complex; assay: as above; format: biochemical; settings: peptide added after preincubation of T- and V-liposomes at 4°C overnight (partially zippered SNAREs) (Figure 4A)
[4] = target: T2, SN23-Syn4-Vp2 SNARE complex (Rattus norvegicus, UniProt O70377+P63045+Q08850); assay: as above; format: biochemical; settings: for inhibition of membrane fusion, peptide added after preincubation: peptide added after preincubation of T- and V-liposomes at 4°C overnight (partially zippered SNAREs) (Figure 4A); for inhibition of membrane fusion, peptide added before preincubation: peptide added before preincubation of T- and V-liposomes at 4°C overnight (Figure 4A)
T2 construct: Syn4 (amino acids 1–298); SNAP-23 (amino acids 1–210); full-length VAMP2 (VpF, amino acids 1–116); GST (N, cleaved yes); made in house; host or cells: Escherichia coli Rosetta(DE3)pLysS
T2 sequence (P63045 whole entry, one chain of several, the tested form may be a part): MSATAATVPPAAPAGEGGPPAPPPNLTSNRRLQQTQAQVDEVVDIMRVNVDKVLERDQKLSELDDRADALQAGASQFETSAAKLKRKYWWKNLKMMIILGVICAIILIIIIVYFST
Text: as §1, §2, §3
A total lipid mixing assay using the T- and V-liposomes was performed as described previously with minor modifications ([8]). […] The fusion was monitored using the dequenching of NBD fluorescence signal (excitation 465 nm/emission 530 nm). After at least 80 min of fusion, the maximum NBD signal was obtained by adding 0.1% Triton X-100™. All the lipid-mixing experiments were performed at 37°C.

RBL-2H3 mast cells [5] = assay: Degranulation assay, histamine release (enzyme immunoassay); format: cell-based, rat; settings: for inhibition of histamine release: PTD-conjugated peptide without SLO (LY294002 as positive control), DNP-IgE sensitized, DNP-BSA stimulation, no A23187 pretreatment, three independent experiments (Figure 2C)
SN23-Syn4-Vp2 complex = target: T3, SN23-Syn4-Vp2 complex (Rattus norvegicus, UniProt O70377+P63045+Q08850); assay: Co-immunoprecipitation of SNARE complexes in activated RBL-2H3 cells, anti-SNAP-23 blot; format: cell-based; settings: peptides added to the medium after A23187 pretreatment; IP of Vp2, blot anti-SNAP-23 (Figure 4C)
T3 construct: Lysates of RBL-2H3 cells; endogenous in cells; host or cells: RBL-2H3 (ATCC CRL-2256)
T3 sequence (P63045 whole entry, one chain of several): as the sequence (P63045 whole entry, one chain of several, the tested form may be a part) above
Method: Lysates of RBL-2H3 cells (0.5–1 × 10^6 cells), which were obtained by the addition of 1 mL lysis buffer (50 mM Tris–HCl, 150 mM NaCl, 1% Triton X-100™, 1 mM EDTA, pH 7.5) supplemented with a protease inhibitor cocktail (Calbiochem®, Merck Millipore, Billerica, MA, USA), were centrifuged at 13,000 g at 4°C to remove cell debris and precleared with 100 µL protein G Sepharose® (GE Healthcare) for 2 h at 4°C. The precleared lysates were incubated with antibodies against SNARE proteins (Syn4, SNAP-23, VAMP2, and VAMP8) for 2 h at 4°C for binding, and then the antibody–antigen complexes were precipitated by incubation with a protein G slurry overnight with constant shaking. After an extensive washing step with lysis buffer, an immunoblotting analysis was performed for the precipitates. The immunoprecipitated proteins and cell lysates were electrophoresed on 12% sodium dodecyl sulfate-polyacrylamide gel electrophoresis gels and then transferred to nitrocellulose blotting membranes (GE Healthcare). After blocking the membranes in TBST (10 mM Tris–HCl, 150 mM NaCl, and 0.05% Tween® 20, pH 8) containing 0.5% BSA and 5% skim milk for 1 h at room temperature, primary anti-SNAP-23 antibody (1:1,000 dilution) in TBST supplemented with 1% BSA and 0.01% sodium azide was added and incubated at 4°C overnight. The membranes were washed with TBST, treated with a horseradish peroxidase-conjugated secondary anti-mouse IgG antibody (A4416, Sigma-Aldrich), and visualized using enhanced chemiluminescence solution for the development of a luminescent signal.

NC/Nga mice = assay: DNCB-induced atopic dermatitis-like skin lesions; format: in vivo, mouse
Text: Seven-week-old NC/Nga mice were purchased from the Shizuoka Laboratory Animal Center (Shizuoka, Japan) and allowed to adapt to the environment for a week prior to use. The procedures for the induction of atopic dermatitis-like symptoms in mice using 1-chloro-2,4-dinitro-benzene (DNCB) have been well described previously ([27]). Briefly, the dorsal hair of the mice was shaved 2 days before DNCB administration. For the induction of atopic dermatitis, 1% DNCB was applied to the dorsal skin of the mice twice weekly for 7 days and then 0.2% DNCB was applied thrice weekly for 21 days. The mice were divided into the following […] treatment groups (n = 10 per group): 0.3 and 3% Vp2N/day, 0.3 and 3% Vp8N/day, 0.1% dexamethasone/day, and vehicle only, dorsally administered from 9 to 13 weeks of age. As a negative control for atopic dermatitis, NC/Nga mice that were not treated with DNCB were maintained under pathogen-free conditions. Laboratory animal breeding management was based on the “Guide for the Care and Use of Laboratory Animals,” and all experiments were approved by the Institutional Animal Care and Use Committees of Gyeonggi Institute of Science & Technology.

[6] = cells pretreated with A23187, sensitized with DNP-IgE, then PTD-conjugated peptide (Figure 4B)
[7] = inhibitor applied to T-vesicles, T:V 9:1, 37°C, NBD dequenching, Vp2S/Vp8S at 10 µM, three independent experiments (Figure 3B-D)

Sequence: EHFKTTSQKVARKFWWK [Vp8C, 17-mer peptide, C-terminal region of VAMP8 SNARE motif]
- inhibition of mast cell degranulation with versus without A23187 pretreatment (RBL-2H3 mast cells [1]): did not inhibit degranulation regardless of whether the pretreatment with A23187 was performed
- inhibition of membrane fusion, peptide added before preincubation [2]: did not inhibit membrane fusion regardless of preincubation
- inhibition of membrane fusion, peptide added after preincubation [3]: did not inhibit membrane fusion regardless of preincubation
- inhibition of membrane fusion, peptide added after preincubation [4]: did not inhibit membrane fusion regardless of preincubation
- inhibition of membrane fusion, peptide added before preincubation [4]: did not inhibit membrane fusion regardless of preincubation

Sequence: DQINKDMREAEKTLTEL [SN23C, 17-mer peptide, C-terminal region of SNAP-23 SNARE motif SN23]
- inhibition of mast cell degranulation with versus without A23187 pretreatment (RBL-2H3 mast cells [1]): did not inhibit degranulation regardless of whether the pretreatment with A23187 was performed
- inhibition of membrane fusion, peptide added before preincubation [2]: did not inhibit membrane fusion regardless of preincubation
- inhibition of membrane fusion, peptide added after preincubation [3]: did not inhibit membrane fusion regardless of preincubation
- inhibition of membrane fusion, peptide added after preincubation [4]: did not inhibit membrane fusion regardless of preincubation
- inhibition of membrane fusion, peptide added before preincubation [4]: did not inhibit membrane fusion regardless of preincubation

Sequence: KIKHVQNQVDEVIDVMQ [Vp4N, 17-mer peptide, N-terminal region of VAMP4 SNARE motif]
- reduction of β-hexosaminidase release (RBL-2H3 mast cells [1]): 0–20%
- inhibition of histamine release (RBL-2H3 mast cells [5]): 0–20%

- SNARE complex formation in cells (amount of SN23-Syn4-Vp2 complex) (SN23-Syn4-Vp2 complex): reduced
- inhibition of membrane fusion (lipid mixing) [4, 7]: efficiently inhibited
Sequence: RRLQQTQAQVDEVVDIM [Vp2N, 17-mer peptide, N-terminal region of VAMP2 SNARE motif]
- reduction of β-hexosaminidase release (RBL-2H3 mast cells [1]): did not inhibit
- inhibition of mast cell degranulation with versus without A23187 pretreatment (RBL-2H3 mast cells [1]): inhibited mast cell degranulation more efficiently than without pretreatment
- inhibition of β-hexosaminidase release after A23187 pretreatment (RBL-2H3 mast cells [1]; [6]): did not inhibit
- epidermal thickness (NC/Nga mice; 0.3 and 3% peptide/day dorsally for 4 weeks, n = 10 per group, versus DNCB/vehicle-treated group (Figure 5C)): significantly reduced
- atopic dermatitis features (acanthosis, hypergranulosis, hyperkeratosis) in hematoxylin and eosin-stained sections (NC/Nga mice; 0.3 and 3% peptide/day dorsally, 9 to 13 weeks of age, n = 10 per group, compared with 0.1% dexamethasone/day group (Figure 5B)): clearly alleviated to a similar extent
- ear thickness (NC/Nga mice; 0.3 and 3% peptide/day or 0.1% dexamethasone/day for 4 weeks, n = 10 per group (Figure 5D)): reduced
- inhibition of membrane fusion, peptide added after preincubation [4]: inhibitory activities significantly diminished
- inhibition of membrane fusion, peptide added before preincubation [4]: inhibited the membrane fusion driven only by their cognate SNARE complexes
- inhibition of histamine release (RBL-2H3 mast cells [5]): 43%
- inhibition of histamine release after A23187 pretreatment (RBL-2H3 mast cells [5]; [6]): dramatically reduced

Sequence: QSLDRVTETQAQVDELK [Vp7N, 17-mer peptide, N-terminal region of VAMP7 SNARE motif]
- reduction of β-hexosaminidase release (RBL-2H3 mast cells [1]): 0–20%
- inhibition of histamine release (RBL-2H3 mast cells [5]): 0–20%

- inhibition of membrane fusion (lipid mixing) [2, 7]: specific to the SN23-Syn4-Vp8 complex
Sequence: RGENLDHLRNKTEDLEA [Vp8M, 17-mer peptide, middle region of VAMP8 SNARE motif]
